Reference: the NIST ThermoML archive (doi:10.1021/je049762q)

Experiment: molar heat capacity at constant pressure
Settings: 101.33 kPa

Clc1cc(Cl)cc(Cl)c1 [1,3,5-trichlorobenzene]
molar heat capacity at constant pressure [J/K/mol]
Settings | Crystal | Liquid
171.08 K | 107.71 | –
172.15 K | 108.11 | –
174.44 K | 109.1 | –
174.82 K | 109.23 | –
177.47 K | 110.35 | –
177.76 K | 110.52 | –
180 K | 111.41 | –
180.1 K | 111.45 | –
181.06 K | 111.92 | –
182.71 K | 112.52 | –
184.34 K | 113.28 | –
185.3 K | 113.6 | –
187.58 K | 114.63 | –
187.87 K | 114.66 | –
190 K | 115.57 | –
190.43 K | 115.78 | –
190.81 K | 115.98 | –
192.97 K | 116.82 | –
194.01 K | 117.3 | –
195.49 K | 117.83 | –
197.19 K | 118.6 | –
198 K | 118.86 | –
200 K | 119.79 | –
200.35 K | 119.94 | –
202.96 K | 120.92 | –
203.48 K | 121.26 | –
205.42 K | 121.91 | –
206.6 K | 122.49 | –
207.87 K | 122.92 | –
209.7 K | 123.75 | –
210 K | 123.84 | –
210.3 K | 123.89 | –
212.71 K | 124.89 | –
212.77 K | 125.04 | –
215.12 K | 125.93 | –
215.83 K | 126.21 | –
217.51 K | 126.8 | –
218.86 K | 127.47 | –
219.88 K | 127.77 | –
220 K | 127.82 | –
221.88 K | 128.7 | –
222.25 K | 128.72 | –
224.6 K | 129.66 | –
224.87 K | 129.89 | –
226.94 K | 130.61 | –
227.85 K | 131.11 | –
229.27 K | 131.59 | –
230 K | 131.95 | –
230.81 K | 132.32 | –
231.58 K | 132.53 | –
233.76 K | 133.48 | –
236.18 K | 134.38 | –
236.69 K | 134.73 | –
238.46 K | 135.33 | –
239.6 K | 135.87 | –
240 K | 136.02 | –
240.73 K | 136.28 | –
242.5 K | 137.03 | –
242.99 K | 137.17 | –
245.24 K | 138.06 | –
245.38 K | 138.2 | –
247.48 K | 138.95 | –
248.24 K | 139.34 | –
249.71 K | 139.83 | –
250 K | 139.96 | –
251.09 K | 140.46 | –
251.93 K | 140.7 | –
253.93 K | 141.6 | –
256.34 K | 142.49 | –
256.76 K | 142.74 | –
258.53 K | 143.37 | –
259.57 K | 143.79 | –
260 K | 143.95 | –
260.71 K | 144.19 | –
262.36 K | 144.92 | –
262.88 K | 145.05 | –
265.05 K | 145.93 | –
265.15 K | 146.04 | –
267.2 K | 146.81 | –
267.91 K | 147.2 | –
269.34 K | 147.62 | –
270 K | 147.9 | –
270.67 K | 148.17 | –
271.48 K | 148.45 | –
273.41 K | 149.19 | –
275.71 K | 150.21 | –
276.13 K | 150.38 | –
277.82 K | 150.9 | –
278.84 K | 151.41 | –
279.93 K | 151.88 | –
280 K | 151.91 | –
281.54 K | 152.27 | –
282.02 K | 152.47 | –
284.11 K | 153.34 | –
286.19 K | 153.9 | –
288.26 K | 154.74 | –
290 K | 155.34 | –
290.32 K | 155.45 | –
292.38 K | 156.18 | –
294.42 K | 157 | –
295.88 K | 157.42 | –
296.46 K | 157.62 | –
298.15 K | 158.32 | –
298.44 K | 158.35 | –
300 K | 159.02 | –
300.52 K | 159.26 | –
300.98 K | 159.48 | –
303.51 K | 160.28 | –
306.03 K | 161.24 | –
306.98 K | 161.57 | –
308.54 K | 162.23 | –
310 K | 162.81 | –
310.04 K | 162.82 | –
311.04 K | 163.32 | –
311.61 K | 163.35 | –
313.11 K | 164.04 | –
313.53 K | 164.32 | –
314.66 K | 164.78 | –
316 K | 165.48 | –
317.72 K | 166.19 | –
318.47 K | 166.69 | –
320 K | 167.31 | –
320.77 K | 167.5 | –
320.93 K | 167.74 | –
323.38 K | 168.94 | –
323.83 K | 169.15 | –
325.82 K | 170.31 | –
326.88 K | 171.2 | –
328.25 K | 171.54 | –
330 K | 172.45 | –
335.92 K | 175.78 | 197.88
338.89 K | – | 198.6
340 K | – | 198.76
341.83 K | – | 199.12
341.91 K | – | 199.27
344.76 K | – | 199.68
344.94 K | – | 199.89
347.69 K | – | 200.32
347.97 K | – | 200.6
350 K | – | 200.94
350.61 K | – | 200.99
350.99 K | – | 201.16
353.52 K | – | 201.63
354 K | – | 201.88
356.43 K | – | 202.27
357.01 K | – | 202.62
359.34 K | – | 202.96
360 K | – | 203.18
360.01 K | – | 203.24
362.24 K | – | 203.68
363.01 K | – | 203.85
365.13 K | – | 204.35
366 K | – | 204.62
368.02 K | – | 204.99
368.98 K | – | 205.5
370 K | – | 205.46
370.9 K | – | 205.72
371.95 K | – | 206
373.78 K | – | 206.29
374.93 K | – | 206.68
376.65 K | – | 206.96
377.9 K | – | 207.35
379.51 K | – | 207.51
380 K | – | 207.79
380.86 K | – | 207.96
